Data published in PubChem BioAssay (NCI).
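Cells were grown in 96-well plates and exposed to each compound for 48 hours at five concentrations; endpoints were interpolated linearly between bracketing concentrations, or set to the highest concentration if not reached. Here, GI50 denotes the concentration required for 50% inhibition of growth. TGI is the concentration that stops growth completely.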 Where a SMILES comes first, the peptide text is derived from it. The star is where a group is joined. Fmoc = O=C(OCC1c2ccccc2-c2ccccc21)*; ONb = O=[N+]([O-])c1ccc(CO*)cc1; Boc = CC(C)(C)OC(=O)*

What was measured:
Assay in all cases: inhibition of tumour cell growth, NCI panel, 48 h
[1] = tested on: SNB-75 CNS
[2] = tested on: KM12 colon
[3] = tested on: CCRF-CEM leukemia
[4] = tested on: IGROV1 ovarian
[5] = tested on: M14 melanoma
[6] = tested on: 786-0 renal
[7] = tested on: MDA-MB-435
[8] = tested on: RXF 393 renal
[9] = tested on: K-562 leukemia
[10] = tested on: A498 renal

| Compound | TGI [1] | TGI [2] | TGI [3] | TGI [4] | TGI [5] | TGI [6] | TGI [7] | TGI [8] | TGI [9] | TGI [10] | GI50 [1] | GI50 [2] | GI50 [3] | GI50 [4] | GI50 [5] | GI50 [7] | GI50 [8] | GI50 [9] | GI50 [10] |
| --- | --- | --- | --- | --- | --- | --- | --- | --- | --- | --- | --- | --- | --- | --- | --- | --- | --- | --- | --- |
| CC(C)(C)OC(=O)NCCCCC(NC(=O)OCC1c2ccccc2-c2ccccc21)C(=O)N1CCCC1C(=O)NCC(N)=O (stereo not drawn) (Fmoc-Lys(Boc)-Pro-Gly-NH2; configuration not given here) | > 100 µM | 38.3 µM | > 100 µM | > 100 µM | > 100 µM | 34.3 µM | 84.8 µM | > 100 µM | > 100 µM | – | – | – | – | – | – | – | – | – | – |
| O=C1/C(=C/c2cccc(Br)c2)CSC/C1=C\c1cccc(Br)c1 | – | 4.43 µM | 6.45 µM | 7.11 µM | 6.14 µM | 11.8 µM | – | 3.79 µM | 6.74 µM | – | – | – | – | – | – | – | – | – | – |
| CN1C(=O)[C@@H]2[C@@H]3c4ccccc4N(S(=O)(=O)C(F)(F)F)[C@@H]3c3[nH]c4ccccc4c3[C@@H]2C1=O | > 100 µM | – | > 100 µM | 5.43 µM | – | > 100 µM | > 100 µM | > 100 µM | > 100 µM | > 100 µM | – | – | – | – | – | – | – | – | – |
| CC(C)C1=CCC2C(=C1)CCC1C(C)(C(=O)O)CCCC21C (stereo not given) (tested in a mixture with another compound) | > 100 µM | > 100 µM | > 100 µM | > 100 µM | > 100 µM | > 100 µM | > 100 µM | > 100 µM | – | > 100 µM | – | – | – | – | – | – | – | – | – |
| O=C(/C=C/c1ccc(O)c(O)c1)c1cc(O)cc(O)c1 | 34.5 µM | – | – | 27.5 µM | 26.9 µM | 26.6 µM | 20.3 µM | 22.8 µM | – | 33.4 µM | – | – | – | – | – | – | – | – | – |
| Cc1c2cnccc2c(C)c2c1c1ccccc1n2CCCCCCNCc1ccccc1 | 3.9 µM | 3.08 µM | 5.13 µM | 3.85 µM | – | – | – | 4.08 µM | 9.36 µM | 3.85 µM | – | – | – | – | – | – | – | – | – |
| Cc1cccnc1/N=C/c1c(O)n(C)c(=O)[nH]c1=O | > 100 µM | > 100 µM | – | > 100 µM | > 100 µM | > 100 µM | > 100 µM | – | – | > 100 µM | – | – | – | – | – | – | – | – | – |
| CCCCNC(=S)Nc1nc(C(=O)NNC(=S)NC2CCCCC2)cs1 | – | > 100 µM | > 100 µM | > 100 µM | > 100 µM | > 100 µM | > 100 µM | – | > 100 µM | > 100 µM | – | – | – | – | – | – | – | – | – |
| CO/N=C(\C)COc1ccc2c(=O)c(-c3ccccc3)coc2c1 | 81.6 µM | > 100 µM | > 100 µM | 77.9 µM | > 100 µM | – | > 100 µM | 57.8 µM | > 100 µM | – | 20 µM | > 100 µM | > 100 µM | 24.7 µM | 93.7 µM | > 100 µM | 27.1 µM | > 100 µM | – |
| CCc1ccc2nc(-c3ccc(O)cc3)sc2c1 | – | 32.7 µM | – | 29.4 µM | 35.5 µM | – | 39.5 µM | – | 54.5 µM | 34.2 µM | – | – | – | – | – | – | – | – | – |
| Cc1ccc(OC2CC(n3cnc4ncnc(Cl)c43)OC2Oc2ccc(C)cc2)cc1 (stereo not given) | 69.1 µM | 74.4 µM | – | 55 µM | 65.8 µM | > 100 µM | > 100 µM | – | – | > 100 µM | – | – | – | – | – | – | – | – | – |
| O=C1CCCC/C1=C\c1ccc(Br)cc1 | 29.8 µM | 5.83 µM | 94.4 µM | 38.3 µM | 26.1 µM | 30.9 µM | 30.6 µM | – | 31.7 µM | – | – | – | – | – | – | – | – | – | – |
| CCCCCCCCCCCCCC[S+](C)C | 3.51 µM | 2.95 µM | 3.25 µM | 2.33 µM | 3.57 µM | 2.61 µM | 4.35 µM | 2.72 µM | 4.68 µM | – | – | – | – | – | – | – | – | – | – |
| CCOC(=O)C(C(=S)Nc1ccccc1)c1nn2c(=O)cc(C)nc2s1 (stereo not given) | 60 µM | 68.8 µM | > 100 µM | > 100 µM | 57.1 µM | > 100 µM | 47.7 µM | > 100 µM | 49 µM | – | – | – | – | – | – | – | – | – | – |
| O=c1[nH]c(Nc2cc(Cl)cc(Cl)c2)nc2nc[nH]c12 | > 75 µM | > 75 µM | > 75 µM | > 75 µM | > 75 µM | > 75 µM | > 75 µM | > 75 µM | > 75 µM | – | – | – | – | – | – | – | – | – | – |
| CCOC(=O)Cc1nc2sc(S(N)(=O)=O)nn2c1Br | > 100 µM | > 100 µM | – | 90.8 µM | 33.8 µM | 52.1 µM | > 100 µM | 69.8 µM | > 100 µM | 65.6 µM | – | – | – | – | – | – | – | – | – |
| CC(C)CC(NC(=O)OC(C)(C)C)C(=O)NC(CCC(=O)OCc1ccc([N+](=O)[O-])cc1)C(=O)OCc1ccc([N+](=O)[O-])cc1 (stereo not drawn) (Boc-Leu-Glu(ONb)-ONb; configuration not given here) | 31.9 µM | – | 57.5 µM | 47.6 µM | 57.8 µM | 71.5 µM | – | – | 39.4 µM | > 100 µM | – | – | – | – | – | – | – | – | – |
| O=c1oc2cc(O)ccc2c(O)c1C(c1cccnc1)c1c(O)c2ccc(O)cc2oc1=O | > 100 µM | > 100 µM | – | > 100 µM | > 100 µM | > 100 µM | > 100 µM | > 100 µM | > 100 µM | > 100 µM | – | – | – | – | – | – | – | – | – |
| N#CCCC1(CCC#N)CCCCCCCCC(CCC#N)(CCC#N)C(=O)C1=O | > 100 µM | > 100 µM | – | – | > 100 µM | > 100 µM | > 100 µM | – | > 100 µM | – | – | – | – | – | – | – | – | – | – |
| O=C1/C(=C/c2ccc(Cl)cc2)N=C(c2ccccc2)N1CCc1cccs1 | > 100 µM | > 100 µM | > 100 µM | > 100 µM | – | – | > 100 µM | > 100 µM | > 100 µM | > 100 µM | 50.9 µM | 22 µM | 22.7 µM | 36.7 µM | – | 28 µM | 23.3 µM | 22.9 µM | 16.7 µM |
| CCCCCCCCCCCCOP(=O)(O)OCC(N)C(=O)O (stereo not given) | 51.9 µM | – | – | > 100 µM | > 100 µM | > 100 µM | 36.8 µM | > 100 µM | > 100 µM | 75.8 µM | – | – | – | – | – | – | – | – | – |
| COc1ccc2oc(OC)c(CC=C(C)C)c(=O)c2c1C | > 100 µM | > 100 µM | > 100 µM | > 100 µM | > 100 µM | > 100 µM | > 100 µM | – | > 100 µM | > 100 µM | – | – | – | – | – | – | – | – | – |
